Experimental data from article PMC4571936, “Pre-steady-state Kinetic Analysis of a Family D DNA Polymerase from Thermococcus sp. 9°N Reveals Mechanisms for Archaeal Genomic Replication and Maintenance” (The Journal of Biological Chemistry, 2015).
Blank lines part the entries; values can stand above or below the compound they belong to.

Tests used:
[1] = biological target: T1, 9°N polD^− (exonuclease-deficient polD mutant H554A); assay: pre-steady-state single-turnover nucleotide incorporation, rapid chemical quench, capillary electrophoresis; type: biochemical, Thermococcus sp. 9°N; conditions: apparent Kd, correct pairing, 2 mM MgSO4, ThermoPol buffer pH 8.8 (at 25 °C), 60 °C
T1 construct: gene polC; recombinant purified heterodimer of large and small subunit, ~1:1; with DNA polymerase II small subunit

[2] = biological target: T1, 9°N polD^− (exonuclease-deficient polD mutant H554A); assay: pre-steady-state single-turnover nucleotide incorporation, rapid chemical quench, denaturing gel electrophoresis; type: biochemical, Thermococcus sp. 9°N; conditions: apparent Kd; correct pairing, template G with 5'-FAM 50-mer primer; 2 mM MgSO4, ThermoPol buffer pH 8.8 (at 25 °C), 60 °C

Kd ([1]; template T with 5'-FAM 50-mer primer): 2500 ± 100 nM
Compound: Nc1ncnc2c1ncn2[C@H]1C[C@H](O)[C@@H](COP(=O)(O)OP(=O)(O)OP(=O)(O)O)O1 [dATP]

Kd [2]: 1700 ± 100 nM
Compound: Nc1ccn([C@H]2C[C@H](O)[C@@H](COP(=O)(O)OP(=O)(O)OP(=O)(O)O)O2)c(=O)n1 [dCTP]

Kd ([1]; template C with 5'-FAM 50-mer primer): 900 ± 300 nM
Compound: Nc1nc2c(ncn2[C@H]2C[C@H](O)[C@@H](COP(=O)(O)OP(=O)(O)OP(=O)(O)O)O2)c(=O)[nH]1 [dGTP]

Kd ([1]; A Template-1 with 5'-FAM 50-mer primer): 1600 ± 100 nM
Compound: Cc1cn([C@H]2C[C@H](O)[C@@H](COP(=O)(O)OP(=O)(O)OP(=O)(O)O)O2)c(=O)[nH]c1=O [dTTP]
